Data as given in US20180170904A1, “PYRIDIN-3-YL ACETIC ACID DERIVATIVES AS INHIBITORS OF HUMAN IMMUNODEFICIENCY VIRUS REPLICATION” (priority 2015, published 2018).

Each compound was assayed on NL-RLuc virus (recombinant NL4-3 proviral clone with Renilla Luciferase gene) (assay: Inhibition of HIV replication (NL-RLuc reporter virus in MT-2 cells)). Settings: MT-2 cells infected with NL-RLuc virus, 5 days of incubation, luciferase readout; read-out: Activity.
Assay type: cell-based
Outline: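 Antiviral EC50 came from luciferase signal after 5-day multicycle replication of NL-RLuc virus in MT-2 cells with serially diluted compound (RPMI 1640, 10% heat-inactivated FBS), fitted by the median effect equation over at least 2 experiments.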
For “(S)-2-(tert-Butoxy)-2-(4-(4,4-dimethylpiperidin-1-yl)-5-(3-(1-(4-fluorobenzyl)-1H-tetrazol-5-yl)phenyl)-2,6-dimethylpyridin-3-yl)acetic acid and/or (S)-2-(tert-Butoxy)-2-(4-(4,4-dimethylpiperidin-1-yl)-5-(3-(2-(4-fluorobenzyl)-2H-tetrazol-5-yl)phenyl)-2,6-dimethylpyridin-3-yl)acetic acid [Example 87]”, the EC50 was under 0.1 µM.
Compound “(S)-2-(tert-Butoxy)-2-(4-(4,4-dimethylpiperidin-1-yl)-5-(4-(1-(4-fluorobenzyl)-1H-tetrazol-5-yl)phenyl)-2,6-dimethylpyridin-3-yl)acetic acid and/or (S)-2-(tert-Butoxy)-2-(4-(4,4-dimethylpiperidin-1-yl)-5-(4-(2-(4-fluorobenzyl)-2H-tetrazol-5-yl)phenyl)-2,6-dimethylpyridin-3-yl)acetic acid [Example 86]” has an EC50 of under 0.1 µM.

Same assay, conditions: Renilla, NL43, 120 h, read-out: Activity
For Cc1nc(C)c([C@H](OC(C)(C)C)C(=O)O)c(N2CCC(C)(C)CC2)c1-c1ccc(N(CCc2ccc(F)cc2)C(O)Cc2ccc(F)cc2)cc1 (stereo partly drawn) [Example 74, (2S)-2-(tert-Butoxy)-2-(4-(4,4-dimethylpiperidin-1-yl)-5-(4-((4-fluorophenethyl)(2-(4-fluorophenyl)-1-hydroxyethyl)amino)phenyl)-2,6-dimethylpyridin-3-yl)acetic acid], the EC50 was under 0.1 µM.
Work on CC(=O)N(CCc1ccc(F)cc1)c1ccc(-c2c(C)nc(C)c([C@H](OC(C)(C)C)C(=O)O)c2N2CCC(C)(C)CC2)cc1 [Example 75, (S)-2-(tert-Butoxy)-2-(4-(4,4-dimethylpiperidin-1-yl)-5-(4-(N-(4-fluorophenethyl)acetamido)phenyl)-2,6-dimethylpyridin-3-yl)acetic acid] yielded an EC50 of under 0.1 µM.
Compound Cc1nc(C)c([C@H](OC(C)(C)C)C(=O)O)c(N2CCC(C)(C)CC2)c1-c1ccc(N(C)CCc2ccc(F)cc2)cc1 [Example 76, (S)-2-(tert-Butoxy)-2-(4-(4,4-dimethylpiperidin-1-yl)-5-(4-((4-fluorophenethyl)(methyl)amino)phenyl)-2,6-dimethylpyridin-3-yl)acetic acid] has an EC50 of under 0.1 µM.
Cc1nc(C)c([C@H](OC(C)(C)C)C(=O)O)c(N2CCC(C)(C)CC2)c1-c1ccc(N(CCO)CCc2ccc(F)cc2)cc1 [Example 77, (S)-2-(tert-Butoxy)-2-(4-(4,4-dimethylpiperidin-1-yl)-5-(4-((4-fluorophenethyl)(2-hydroxyethyl)amino)phenyl)-2,6-dimethylpyridin-3-yl)acetic acid] was tested, and the EC50 was under 0.1 µM.
Compound Cc1nc(C)c([C@H](OC(C)(C)C)C(=O)O)c(N2CCC(C)(C)CC2)c1-c1ccc(SCCc2ccc(F)cc2)cc1 [Example 78, (S)-2-(tert-Butoxy)-2-(4-(4,4-dimethylpiperidin-1-yl)-5-(4-((4-fluorophenethyl)thio)phenyl)-2,6-dimethylpyridin-3-yl)acetic acid] has an EC50 of under 0.1 µM.
For Cc1nc(C)c([C@H](OC(C)(C)C)C(=O)O)c(N2CCC(C)(C)CC2)c1-c1ccc(S(=O)(=O)CCc2ccc(F)cc2)cc1 [Example 79, (S)-2-(tert-Butoxy)-2-(4-(4,4-dimethylpiperidin-1-yl)-5-(4-((4-fluorophenethyl)sulfonyl)phenyl)-2,6-dimethylpyridin-3-yl)acetic acid], the EC50 was under 0.1 µM.
Compound Cc1nc(C)c([C@H](OC(C)(C)C)C(=O)O)c(N2CCC(C)(C)CC2)c1-c1ccc(/S(CCc2ccc(F)cc2)=N/C(=O)OC(C)(C)C)cc1 (stereo partly drawn) [Example 80, (2S)-2-(tert-Butoxy)-2-(5-(4-((E)-N-(tert-butoxycarbonyl)-S-(4-fluorophenethyl)sulfinimidoyl)phenyl)-4-(4,4-dimethylpiperidin-1-yl)-2,6-dimethylpyridin-3-yl)acetic acid] has an EC50 of under 0.1 µM.
Compound Cc1nc(C)c([C@H](OC(C)(C)C)C(=O)O)c(N2CCC(C)(C)CC2)c1-c1ccc(S(=O)(CCc2ccc(F)cc2)=NC(=O)OC(C)(C)C)cc1 (stereo partly drawn) [Example 81, (2S)-2-(tert-Butoxy)-2-(5-(4-(N-(tert-butoxycarbonyl)-2-(4-fluorophenyl)ethylsulfonimidoyl)phenyl)-4-(4,4-dimethylpiperidin-1-yl)-2,6-dimethylpyridin-3-yl)acetic acid] has an EC50 of under 0.1 µM.
With Cc1nc(C)c([C@H](OC(C)(C)C)C(=O)O)c(N2CCC(C)(C)CC2)c1-c1ccc(CO)cc1 [Example 82, (S)-2-(tert-Butoxy)-2-(4-(4,4-dimethylpiperidin-1-yl)-5-(4-(hydroxymethyl)phenyl)-2,6-dimethylpyridin-3-yl)acetic acid] the EC50 was under 0.1 µM.
Cc1nc(C)c([C@H](OC(C)(C)C)C(=O)O)c(N2CCC(C)(C)CC2)c1-c1ccc(C=O)cc1 [Example 83, (S)-2-(tert-Butoxy)-2-(4-(4,4-dimethylpiperidin-1-yl)-5-(4-formylphenyl)-2,6-dimethylpyridin-3-yl)acetic acid] was tested, and the EC50 was under 0.1 µM.
Compound Cc1nc(C)c([C@H](OC(C)(C)C)C(=O)O)c(N2CCC(C)(C)CC2)c1-c1ccc(C=Cc2ccc(F)cc2)cc1 [Example 84, (S)-2-(tert-Butoxy)-2-(4-(4,4-dimethylpiperidin-1-yl)-5-(4-(4-fluorostyryl)phenyl)-2,6-dimethylpyridin-3-yl)acetic acid] has an EC50 of 0.1 to 1 µM.
Work on Cc1nc(C)c([C@H](OC(C)(C)C)C(=O)O)c(N2CCC(C)(C)CC2)c1-c1ccc(CCc2ccc(F)cc2)cc1 [Example 85, (S)-2-(tert-Butoxy)-2-(4-(4,4-dimethylpiperidin-1-yl)-5-(4-(4-fluorophenethyl)-phenyl)-2,6-dimethylpyridin-3-yl)acetic acid] yielded an EC50 of under 0.1 µM.
For Cc1nc(C)c([C@H](OC(C)(C)C)C(=O)O)c(N2CCC(C)(C)CC2)c1-c1ccc(C(=O)NC(c2ccccc2)C(F)(F)F)cc1 (stereo partly drawn) [Example 88, (2S)-2-(tert-Butoxy)-2-(4-(4,4-dimethylpiperidin-1-yl)-2,6-dimethyl-5-(4-((2,2,2-trifluoro-1-phenylethyl)carbamoyl)phenyl)pyridin-3-yl)acetic acid], the EC50 was under 0.1 µM.

Same assay, conditions: Renilla, NL43, 120 h, read-out: EC50 μM
Work on Cc1nc(C)c([C@H](OC(C)(C)C)C(=O)O)c(N2CCC(C)(C)CC2)c1-c1ccc(SCCc2ccc(F)cc2)cc1 [Example 78, (S)-2-(tert-Butoxy)-2-(4-(4,4-dimethylpiperidin-1-yl)-5-(4-((4-fluorophenethyl)thio)phenyl)-2,6-dimethylpyridin-3-yl)acetic acid] yielded an EC50 of 0.016 µM.
Cc1nc(C)c([C@H](OC(C)(C)C)C(=O)O)c(N2CCC(C)(C)CC2)c1-c1ccc(C=Cc2ccc(F)cc2)cc1 [Example 84, (S)-2-(tert-Butoxy)-2-(4-(4,4-dimethylpiperidin-1-yl)-5-(4-(4-fluorostyryl)phenyl)-2,6-dimethylpyridin-3-yl)acetic acid] showed an EC50 of 0.126 µM.
